In patent publication US20060035927A1, “Calcilytic compounds” (SmithKline Beecham Corporation, priority 1999, published 2006):

Key:
osteopenic ovx rats [1] = experiment: Ovariectomized rat Study 2: calcilytic plus/minus 17β estradiol, histology and histomorphometry of proximal tibia; assay type: in vivo; settings: Study 2, proximal tibia, static histomorphometry, vs ovx group
Protocol: Animals were prepared and monitored as described above. […] Dosing continued for 5 weeks at which point the animals were sacrificed and the tibiae were collected for histological analysis. Bone samples were dehydrated through increasing concentrations of ethanol, defatted in acetone and embedded in methyl methacrylate (Polysciences, Inc., Warrington, Pa.). Longitudinal undecalcified sections (5 μm) sections of the proximal tibial were cut on a Leica microtome (S[…]); the tissue blocks had been prestained with Villanueva stain. Histomorphometric analysis was carried out using an Osteomeasure system (OsteoMetrics Incorpotated), without knowledge of group allocation. Measurements within the tibial metaphysis were restricted to a mean tissue area of approximately 8 mm^2 beginning 1 mm below the growth plate. Primary measurements included area of bone and marrow (mm^2), bone area (mm^2), perimeter of bone (mm), single and double-labelled perimeter (sL.Pm, dL.Pm, m), osteoid perimeter (O.Pm, m) and eroded perimeter (Er.P, m). […] Statistical analysis was assessed by a two sided t-test.

human osteoclasts = experiment: Human osteoclast-mediated bone resorption assay; assay type: cell-based; settings: 24 hours, bovine cortical bone particles
Protocol: The isolation of disaggregated human osteoclasts from fresh osteoclastoma tissue and the in vitro human osteoclast resorption assay were performed according to James, J. Bone Min. Res., Vol. 11, pp. 1453-1460. Briefly, human osteoclasts were seeded onto bovine cortical bone particles with compound or vehicle for 24 hours at 37° C. The culture media were then removed and the levels of the carboxy-terminal peptide of the α1 chain of human type I collagen were quantified as a biochemical readout of resorption, using a competitive binding enzyme linked immunosorbant assay (ELISA) (19) (Osteometer A/S, Rodovre, Denmark). The results are expressed as percent inhibition of resorption compared to supernatants derived from osteoclasts cultured in vehicle without inhibitor. IC50 values are determined from the resultant dose response curves.

osteopenic ovx rats [2] = experiment: Ovariectomized rat Study 1: bone mineral density by DXA; assay type: in vivo; settings: Study 1, ovx rats, 5 ug/kg daily PTH s.c., eight weeks
From the text: (§1) Seven month old virgin Sprague Dawley female rats were subjected to bilateral ovariectomy or sham surgery and the animals then held for a period of three months to allow the development of osteopenia. At that time a single sham group (n=10) and three groups of ovariectomized (ovx) animals (n=10-14) were assigned. The ovx groups were selected such that there was no significant difference in bone mineral density (“BMD”) of the lumbar spine, proximal tibia or distal femur between groups. Groups consisted of sham and ovx controls treated with dose vehicle (20% aqueous encapsin) and ovx groups treated with either N-[(2R-Hydroxy-3-[(3-chloro-2-cyano)phenoxy-propyl]-1,1-dimethyl-2-(2-naphthyl)ethyl amine hydrochloride (“calcilytic administered”) ([…] body weight daily p.o.) or rat PTH 1-34 (5 ug/kg body weight daily s.c.).
(§2) During the study blood samples were drawn for determination of circulating PTH and osteocalcin. BMD was determined by DXA (QDR4500 Hologic, Waltham, Mass.) prior to treatment and at weeks 4 and 8. At term tibiae were removed for histological analysis. All animals received tetracycline 10 and 3 days prior to the start of dosing and calcein (10 mg/kg) 10 and 3 days prior to sacrifice.

plasma PTH = experiment: Ovariectomized rat Study 1: circulating PTH levels (RIA); assay type: in vivo; settings: Study 1, 5 ug/kg PTH s.c.
From the text: as §1, §2
Timed plasma samples were collected relative to administration of compound or PTH. PTH 1-34 was measured by RIA (Nichols Institute Diagnostics, San Juan Capistrano, Calif.). The concentrations of compound in the plasma were quantified by LC/MS/MS (limit of detection 10 ng/ml).

osteopenic ovx rats [3] = experiment: Ovariectomized rat Study 1: dynamic histomorphometry of proximal tibia; assay type: in vivo
From the text: as §1, §2
Bone samples were dehydrated through increasing concentrations of ethanol, defatted in acetone and embedded in methyl methacrylate (Polysciences, Inc., Warrington, Pa.). Longitudinal undecalcified sections (5 μm) sections of the proximal tibial were cut on a Leica microtome (SM2500S); the tissue blocks had been prestained with Villanueva stain. Histomorphometric analysis was carried out using an Osteomeasure system (OsteoMetrics Incorpotated), without knowledge of group allocation. Measurements within the tibial metaphysis were restricted to a mean tissue area of approximately 8 mm^2 beginning 1 mm below the growth plate. Primary measurements included area of bone and marrow (mm^2), bone area (mm^2), perimeter of bone (mm), single and double-labelled perimeter (sL.Pm, dL.Pm, m), osteoid perimeter (O.Pm, m) and eroded perimeter (Er.P, m). Derived indices included trabecular bone volume (% Tb.Ar), trabecular number (Th.N, mm^−1), trabecular thickness (Th.Th, μm), trabecular separation (Th.Sp, μm), bone formation rate, surface referent (BFR/Tb.Pm, μm^3/μm^2/year), BFR/Tb.Ar (bone area referent, %/year), BFR/B.Ar (tissue referent, %/year) and mineral apposition rate (MAR, μm/day), and percent labelled perimeter (% Lp). Statistical analysis was assessed by a two sided t-test.

[4] = tested on: human TF274 osteoblastic cells; experiment: Osteoblast cAMP production, TF274 cells; assay type: cell-based; settings: compound 0.1, 1 and 10 uM, PTH 40 ng/ml positive control
Protocol: (§3) cAMP accumulation was measured in both human TF274 osteoblastic cells (derived by immortalization of human bone marrow stromal cells) see James, supra, and primary human osteoblasts derived from explants of trabecular bone as described in Beresford, Biochim. Biophys. Acta, Vol. 801, pp. 58-65 ([…]). cAMP levels in cell samples were measured using a non-radioactive protocol (Amersham kit). Alkaline phosphatase activity was determined using the standard colorimetric method as described previously in Gowen, Arth. Rheum., Vol. 31, pp. 1500-1507 (1988). N-[(2R-Hydroxy-3-[(3-chloro-2-cyano)phenoxy-propyl]-1,1-dimethyl-2-(2-naphthyl)ethyl amine hydrochloride was tested at 0.1, 1 and 10 uM. PTH 40 ng/ml was used as a positive control.

[5] = tested on: primary human osteoblasts; experiment: Osteoblast cAMP production, primary human osteoblasts; assay type: cell-based; settings: compound 0.1, 1 and 10 uM, PTH 40 ng/ml positive control
Protocol: as §3

[6] = rats, PTH dose of 80 ug/kg, published studies; cited from earlier work
[7] = cited from earlier work
[8] = s.c. infusion 40 and 80 ug/kg/day over periods of 2 hours or more; cited from earlier work
[9] = Study 1, proximal tibia, vs ovx control, calcilytic 100 mmol/kg p.o. or PTH 5 ug/kg s.c. daily
[10] = clinical, 0.4 ug/kg, 30 minutes after dosing

C[C@]12CC[C@@H]3c4ccc(O)cc4CC[C@H]3[C@@H]1CC[C@@H]2O [estradiol, 17β estradiol, reference compound]
% trabecular area (% Tb.Ar.) / ovx-induced bone loss (osteopenic ovx rats [1]): not significantly restored

3,1,1-bis (2-methylpropyl)-4,7,10-trioxo-2,5,6,8,9,12-hexaazatridecanedioate [reference compound]
IC50 (human osteoclasts): 900 nM

PTH: parathyroid hormone; rat PTH 1-34 s.c. in the rat studies, PTH 40 ng/ml as positive control in osteoblast assays [reference compound]
bone mass (BMD) in the proximal tibia (osteopenic ovx rats [2]): returned to pre-ovx levels
time of return of PTH levels to baseline after dosing (plasma PTH): 2 to 4 h
PTH levels in animals given PTH (plasma PTH; compared with calcilytic-dosed animals): in the same range
bone formation and resorption, net bone gain or loss (osteopenic ovx rats [3]; Study 1, overall outcome): increased both resorption and formation, but formation exceeded resorption, resulting in increased bone mass
bone formation: % labeled perimeter (% L.Pm.) (osteopenic ovx rats [3]; [9]): elevated above the ovx control level
bone formation: % osteoid perimeter (% Os.Pm) (osteopenic ovx rats [3]; [9]): elevated above the ovx control level
cAMP levels (basal) [4]: two-fold increase
cAMP levels (basal) [5]: two-fold increase
circulating level of PTH [6]: 5,000-14,000 pg/ml
bone mass ([7]; clinical studies, approximate doses of 0.4-0.8 ug/kg body weight): increased bone mass
circulating levels of PTH 1-34 [7, 10]: approximately 90 pmol/l
increase in circulating PTH levels [7, 10]: three-fold increase
adverse effects of prolonged PTH infusion [8]: rapid loss in body weight, hypercalcemia and histological abnormalities in the skeleton
